Reference: US20250388565A1, “ESTROGEN RECEPTOR ALPHA DEGRADERS AND METHODS OF USE THEREOF” (Relay Therapeutics, Inc., priority 2022, published 2025)

Biological target: T1, ERα protein (HiBiT-tagged) in ESR1_HiBiT KI MCF7 cells (Homo sapiens, UniProt P03372)
T1 sequence (P03372 1-595): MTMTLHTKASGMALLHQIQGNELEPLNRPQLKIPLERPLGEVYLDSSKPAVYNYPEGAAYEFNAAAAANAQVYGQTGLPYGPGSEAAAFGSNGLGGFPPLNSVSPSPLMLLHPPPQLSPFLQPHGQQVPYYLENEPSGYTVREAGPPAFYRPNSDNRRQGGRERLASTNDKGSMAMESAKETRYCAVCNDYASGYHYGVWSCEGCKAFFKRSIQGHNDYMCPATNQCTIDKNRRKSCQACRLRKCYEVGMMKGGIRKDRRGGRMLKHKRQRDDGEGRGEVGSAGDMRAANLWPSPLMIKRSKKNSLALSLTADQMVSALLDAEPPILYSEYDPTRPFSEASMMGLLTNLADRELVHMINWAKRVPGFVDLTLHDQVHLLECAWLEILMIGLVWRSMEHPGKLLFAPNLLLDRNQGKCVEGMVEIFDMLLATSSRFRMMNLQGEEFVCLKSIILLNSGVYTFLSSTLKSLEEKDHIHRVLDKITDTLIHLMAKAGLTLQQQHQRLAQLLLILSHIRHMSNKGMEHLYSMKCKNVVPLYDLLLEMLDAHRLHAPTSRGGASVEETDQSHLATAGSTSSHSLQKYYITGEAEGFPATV
Experiment: Nano Glo HiBiT Lytic Degradation Assay
Type: cell-based
Conditions: 6 hours with compound, 14-point dose response 1:3, bell-shape curve fit, half-maximal effect of first Hill model, read-out: MCF7 ESR1 HiBiT - (DC50)
Summary of the method: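 ESR1_HiBiT knock-in MCF7 cells were seeded 24 h before treatment, then exposed to compounds for 6 h at 37° C (14-point 1:3 curves, 10 mM top stock, 0.1% DMSO final, duplicates). HiBiT-ERα was read by lytic LgBiT luminescence, background-subtracted and normalized to DMSO. DC50 was taken from the half-maximal point of the first Hill component of a bell-shaped fit.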

First: Cc1cc([C@@H]2c3ccc(O)cc3CC[C@@H]2c2ccccc2)ccc1N1CCC(CN2CCN(c3ccc4c(c3)CN([C@H]3CCC(=O)NC3=O)C4=O)CC2)CC1 (single isomer, unassigned) [II-42]
Second: COc1cc(N2CCC(CN3CCN(c4ccc5c(c4)CN([C@H]4CCC(=O)NC4=O)C5=O)CC3)CC2)ccc1[C@@H]1c2ccc(O)cc2CC[C@@H]1c1ccccc1 [Compound I-144, (S)-3-(5-(4-((1-(4-((1S,2S)-6-hydroxy-2-phenyl-1,2,3,4-tetrahydronaphthalen-1-yl)-3-methoxyphenyl)piperidin-4-yl)methyl)piperazin-1-yl)-1-oxoisoindolin-2-yl)piperidine-2,6-dione]
The DC50 of the first is higher: at least 10000 nM for the first, 0.37 nM for the second.

Compared with `O=C1CC[C@H](N2Cc3cc(N4CCN(CC5CCN(c6ccc([C@@H]7c8ccc(O)cc8COC78CCCCC8)cc6)CC5)CC4)ccc3C2=O)C(=O)N1` [Compound I-123, (S)-3-(5-(4-((1-(4-((R)-7′-hydroxyspiro[cyclohexane-1,3′-isochroman]-4′-yl)phenyl)piperidin-4-yl)methyl)piperazin-1-yl)-1-oxoisoindolin-2-yl)piperidine-2,6-dione], `O=C1CC[C@H](N2Cc3cc(N4CCN(CC5CCN(c6ccc([C@@H]7c8ccc(O)cc8CO[C@@H]7C7CCCCC7)cc6)CC5)CC4)ccc3C2=O)C(=O)N1` [Compound I-34, (S)-3-(5-(4-((1-(4-((3R,4R)-3-cyclohexyl-7-hydroxyisochroman-4-yl)phenyl)piperidin-4-yl)methyl)piperazin-1-yl)-1-oxoisoindolin-2-yl)piperidine-2,6-dione] is 1.6-fold higher in DC50: 0.31 nM for the first, 0.49 nM for the second.

First: CC[C@H]1CCc2cc(O)ccc2[C@H]1c1ccc(N2CCC(CN3CCN(c4ccc5c(c4)CN([C@H]4CCC(=O)NC4=O)C5=O)CC3)CC2)cc1 (single isomer, unassigned) [Compound I-111]
Second: Cn1ccc([C@@H]2CCc3cc(O)ccc3[C@@H]2c2ccc(N3CCC(CN4CCN(c5ccc6c(c5)CN([C@H]5CCC(=O)NC5=O)C6=O)CC4)CC3)cc2)n1 [Compound I-31]
The DC50 of the first is lower: 332 nM for the first, at least 10000 nM for the second.

`O=C1CC[C@H](N2Cc3cc(N4CCN(CC5CCN(c6ccc([C@@H]7c8ccc(O)cc8CC[C@@H]7C78CC9CC(CC(C9)C7)C8)cc6)CC5)CC4)ccc3C2=O)C(=O)N1` [Compound I-161, (S)-3-(5-(4-((1-(4-((1R,2S)-2-((3R,5R,7R)-adamantan-1-yl)-6-hydroxy-1,2,3,4-tetrahydronaphthalen-1-yl)phenyl)piperidin-4-yl)methyl)piperazin-1-yl)-1-oxoisoindolin-2-yl)piperidine-2,6-dione] and `O=C1CCC(N2Cc3cc(N4CCN(CC5CCN(c6ccc([C@@H]7c8ccc(O)cc8CC[C@@H]7C7CCCC7)cc6)CC5)CC4)ccc3C2=O)C(=O)N1` (single isomer, unassigned) [Compound I-52] are within 1.5-fold of each other in DC50: 8 nM for the first, 9 nM for the second.

First: O=C1CC[C@H](N2Cc3cc(N4CCN(CC5CCN(c6cc(F)c([C@@H]7c8ccc(O)cc8CC[C@@H]7C7CCCCC7)c(F)c6)CC5)CC4)ccc3C2=O)C(=O)N1 [Compound I-119, (S)-3-(5-(4-((1-(4-((1S,2R)-2-cyclohexyl-6-hydroxy-1,2,3,4-tetrahydronaphthalen-1-yl)-3,5-difluorophenyl)piperidin-4-yl)methyl)piperazin-1-yl)-1-oxoisoindolin-2-yl)piperidine-2,6-dione]
Second: CC1(C)CC([C@@H]2CCc3cc(O)ccc3[C@@H]2c2ccc(N3CCC(CN4CCN(c5ccc6c(c5)CN([C@H]5CCC(=O)NC5=O)C6=O)CC4)CC3)cc2)CC(C)(C)C1 [Compound I-117, (35)-3-[5-[4-[[1-[4-[(1R,2R)-6-hydroxy-2-(3,3,5,5-tetramethylcyclohexyl)tetralin-1-yl]phenyl]-4-piperidyl]methyl]piperazin-1-yl]-1-oxo-isoindolin-2-yl]piperidine-2,6-dione]
The DC50 of the first is lower: 6 nM for the first, at least 10000 nM for the second.

First: Cc1cc(F)ccc1[C@@H]1OCc2cc(O)ccc2[C@@H]1c1ccc(N2CCC(CN3CCN(c4ccc5c(c4)CN([C@H]4CCC(=O)NC4=O)C5=O)CC3)CC2)cc1 [Compound I-372, (S)-3-(5-(4-((1-(4-((3R,4S)-3-(4-fluoro-2-methylphenyl)-7-hydroxyisochroman-4-yl)phenyl)piperidin-4-yl)methyl)piperazin-1-yl)-1-oxoisoindolin-2-yl)piperidine-2,6-dione]
Second: Cc1ccc([C@@H]2OCc3cc(O)ccc3[C@@H]2c2ccc(N3CCC(CN4CCN(c5ccc6c(c5)CN([C@H]5CCC(=O)NC5=O)C6=O)CC4)CC3)cc2)cc1F (single isomer, unassigned) [Compound I-356]
The DC50 of the first is 2-fold lower: 27 nM for the first, 54 nM for the second.

Going from `O=C1CCC(c2ccc3c(c2)C[C@H](N2CCN(CC4CCN(c5ccc([C@@H]6c7ccc(O)cc7CC[C@@H]6c6ccccc6)cc5)CC4)CC2)CC3)C(=O)N1` (single isomer, unassigned) [Compound I-423] to `O=C1CC[C@H](N2Cc3cc(N4CCN(CC5CCN(c6ccc([C@@H]7c8ccc(O)cc8CC[C@@H]7c7ccc8c(c7)CCC8)cc6)CC5)CC4)ccc3C2=O)C(=O)N1` (single isomer, unassigned) [Compound I-412], the DC50 falls from at least 10000 nM to 332 nM.

Going from `O=C1CC[C@H](N2Cc3cc(N4CCN(CC5CCN(c6ccc([C@@H]7c8ccc(O)cc8CO[C@@H]7c7ccc8c(c7)CC8)cc6)CC5)CC4)ccc3C2=O)C(=O)N1` (single isomer, unassigned) [Compound I-363] to `O=C1CC[C@H](N2Cc3cc(N4CCN(CC5CCN(c6ccc([C@H]7c8ccc(O)cc8CO[C@H]7c7ccc(F)cc7)cc6)CC5)CC4)ccc3C2=O)C(=O)N1` [Compound I-346, (S)-3-(5-(4-((1-(4-((3R,4S)-3-(4-fluorophenyl)-7-hydroxyisochroman-4-yl)phenyl)piperidin-4-yl)methyl)piperazin-1-yl)-1-oxoisoindolin-2-yl)piperidine-2,6-dione], the DC50 rises from 0.17 nM to at least 10000 nM.

`O=C1CC[C@H](N2Cc3cc(N4CCN(CC5CCN(c6ccc([C@@H]7c8ccc(O)cc8C(F)(F)C[C@@H]7c7cc(F)ccc7F)cc6)CC5)CC4)ccc3C2=O)C(=O)N1` [Compound I-316, (S)-3-(5-(4-((1-(4-((1R,2S)-2-(2,5-difluorophenyl)-4,4-difluoro-6-hydroxy-1,2,3,4-tetrahydronaphthalen-1-yl)phenyl)piperidin-4-yl)methyl)piperazin-1-yl)-1-oxoisoindolin-2-yl)piperidine-2,6-dione] and `O=C1CC[C@H](N2Cc3cc(N4CCN(CC5CCN(c6ccc([C@@H]7c8ccc(O)cc8C(F)(F)C[C@@H]7c7ccc(F)c(F)c7)cc6)CC5)CC4)ccc3C2=O)C(=O)N1` [Compound I-314, (S)-3-(5-(4-((1-(4-((1R,2S)-2-(3,4-difluorophenyl)-4,4-difluoro-6-hydroxy-1,2,3,4-tetrahydronaphthalen-1-yl)phenyl)piperidin-4-yl)methyl)piperazin-1-yl)-1-oxoisoindolin-2-yl)piperidine-2,6-dione] are within 1.5-fold of each other in DC50: 0.3 nM for the first, 0.33 nM for the second.

First: O=C1CC[C@H](N2Cc3cc(N4CCN(CC5CCN(c6ccc([C@@H]7c8ccc(O)c(Cl)c8CC[C@@H]7c7ccccc7)cc6Cl)CC5)CC4)ccc3C2=O)C(=O)N1 [II-64]
Second: O=C1CC[C@H](N2Cc3cc(N4CCN(CC5CCN(c6ccc([C@H]7c8ccc(O)cc8CC[C@H]7c7ccccc7)nc6)CC5)CC4)ccc3C2=O)C(=O)N1 [II-77]
The DC50 of the first is lower: 16 nM for the first, at least 10000 nM for the second.

First: Cn1cc([C@H]2CCc3cc(O)ccc3[C@H]2c2ccc(N3CCC(CN4CCN(c5ccc6c(c5)CN([C@H]5CCC(=O)NC5=O)C6=O)CC4)CC3)cc2)cn1 [Compound I-30]
Second: O=C1CC[C@H](N2Cc3cc(N4CCN(CC5CCN(c6ccc([C@@H]7c8ccc(O)cc8CC[C@@H]7c7ccc(O)cc7)cc6)CC5)CC4)ccc3C2=O)C(=O)N1 [Compound I-131, (35)-3-[5-[4-[[1-[4-[(1R, 2S)-6-hydroxy-2-(4-hydroxyphenyl)tetralin-1-yl]phenyl]-4-piperidyl]methyl]piperazin-1-yl]-1-oxo-isoindolin-2-yl]piperidine-2,6-dione]
The DC50 of the first is 67-fold higher: 2 nM for the first, 0.03 nM for the second.

First: O=C1CC[C@H](N2Cc3cc(N4CCN(CC5CCN(c6ccc([C@@H]7c8ccc(O)cc8CC[C@@H]7c7ccc(F)cc7)cc6)CC5)CC4)ccc3C2=O)C(=O)N1 [II-94]
Second: O=C1CCC(N2Cc3cc(N4CC5(CN(CC6CCN(c7ccc([C@@H]8c9ccc(O)cc9CC[C@@H]8c8ccccc8)cc7)CC6)C5)C4)ccc3C2=O)C(=O)N1 (single isomer, unassigned) [II-39]
The DC50 of the first is lower: 0.64 nM for the first, at least 10000 nM for the second.

Compared with `O=C1CC[C@H](N2Cc3cc(N4CCN(CC5CCN(c6ccc([C@H]7c8ccc(O)cc8CC[C@@]78CCCc7ccccc78)cc6)CC5)CC4)ccc3C2=O)C(=O)N1` (single isomer, unassigned) [Compound I-266], `Cn1c(=O)n([C@H]2CCC(=O)NC2=O)c2ccc(N3CCN(CC4CCN(c5ccc([C@@H]6c7ccc(O)cc7C(F)(F)C[C@@H]6c6ccccc6)cc5)CC4)CC3)cc21` (single isomer, unassigned) [Compound I-277] is 57-fold lower in DC50: 17 nM for the first, 0.3 nM for the second.
